US11958828B1, “4,5-bis(4-bromophenyl)-1-hexyl-2-(3-pyridyl)-1H-imidazole as an antimicrobial compound” (KING FAISAL UNIVERSITY, priority 2023, dated 2024)

Key:
Type in all cases: cell-based
Conditions in all cases: after 10, 20, 40 and 60 min at all dilutions 1:100, 1:200, 1:400, 1:800
Candida albicans = experiment: Antimicrobial testing by agar dilution, Candida albicans
Method: (§1) The antimicrobial properties of the 4,5-bis(4-bromophenyl)-1-hexyl-2-(3-Pyridyl)-1H-imidazole (5) were studied by the method of agar dilution. Test solutions of each compound were prepared in concentration of 1% using dimethylformamide as a solvent then they are diluted in physiological solution to obtain the final experimental dilutions 1:100, 1:200, 1:400, 1:800. The effect of these substances were compared with furacillin in a controllable study. The testing microbes used were gram positive bacteria Staphylococcus aureus, gram negative bacteria Escherichia coli, Pseudomonas aeruginosa and Candida albicans fungi were taken. The experiments used for this survey were meat-pentonlu agar (EPA) for cultivation of bacteria and Saburo environment for fungi. Each experiment used 1 ml of test solution on each plate 500 min. Add 2 drops of emulsified with microbes feel. All experimental samples were taken from the agar after 10, 20, 40, 60 minutes in the environment on the basis of Patrk planted. Bacteria were cultivated at a temperature of 37° C. for 1 day and the mushroom was kept in a thermostat for […] at a temperature of 28° C. in the. Then results were checked.

Staphylococcus aureus = experiment: Antimicrobial testing by agar dilution, Staphylococcus aureus
Method: as §1

Pseudomonas aeruginosa = experiment: Antimicrobial testing by agar dilution, Pseudomonas aeruginosa
Method: as §1

Escherichia coli = experiment: Antimicrobial testing by agar dilution, Escherichia coli
Method: as §1

Measured: inhibition activity (in words)

CCCCCCn1c(-c2cccnc2)nc(-c2ccc(Br)cc2)c1-c1ccc(Br)cc1 [4,5-bis(4-bromophenyl)-1-hexyl-2-(3-pyridyl)-1H-imidazole]
highest inhibition activity: Candida albicans | Staphylococcus aureus | Pseudomonas aeruginosa | Escherichia coli
